Data taken from patent publication US11066409B2, “Bicyclic nitrogen-containing heterocyclic derivatives and pharmaceutical composition comprising the same” (Shionogi & Co., Ltd., priority 2016, dated 2021).

Experiments:
[1] = system: partial sciatic nerve ligation model in rats; assay: Analgesic effect in a Seltzer model (partial sciatic nerve ligation), mechanical allodynia by von Frey filaments; assay type: in vivo; settings: 1 h, rat, oral, reversal of mechanical allodynia, approximately 1 to 5 hours after administration
From the text: Preparation of Partial Sciatic Nerve Ligation Model in Rats
Rats were anaesthetized using isoflurane/O2 inhalation anaesthesia. After induction of anesthesia, the left thigh was shaved. An incision was made in the skin just below the hip bone. The muscle was bluntly dissected to expose the sciatic nerve. About one half (½) of the sciatic nerve thickness was tightly ligated with a nylon thread and the wound was closed. The right thigh was used as a sham-operated control. The right thigh underwent an identical procedure with the left hind limb, however, the sciatic nerve was not manipulated or ligated.
Two weeks after nerve ligation, the effect on mechanical allodynia was assessed using a series of von Frey filaments. For habituation, the rats were placed into a plastic cage on a wire mesh bottom. Von Frey filaments (0.4 to 26 g) were applied to the plantar surface of the rat hind paws from the wire mesh side, and the value of the filament pressure at which the paw was withdrawn was used as a pain threshold. The measurement of mechanical sensitivity of the right and left hind paws was performed to obtain predose mechanical sensitivity. The rats showing the threshold change from 0.6 to 2 g (in nerve ligated side) and 8 to 15 g (in sham operated side) were used in the experiments. On the day before the experiment, the rats were evaluated with a series of von Frey filaments to familiarize them with the test procedure. The adopted animal was administrated with the compounds of the present invention. The compounds of the present invention were homogenized with mortar and pestle and suspended or diluted in 0.5% Methyl Cellulose to prepare 0.03-100 mg/2 mL/kg suspension and orally administered to rat using a syringe attached with a sonde. Post-dose mechanical sensitivities of the right and left hind paws were measured at approximately 1 to 5 hours after drug administration. Percent reversal of mechanical allodynia for each rat was calculated using the following formula. The analgesic effects of the compounds were compared.

[2] = biological target: human PXR (Homo sapiens (Human), UniProt O75469); assay: Evaluation of activation of human pregnane X receptor (PXR), DPX2 cells; assay type: cell-based; settings: 48 hours, emission intensity divided by fluorescence intensity; for PXR 10 μM: compound 10 μM; for PXR 50 μM: compound 50 μM
Method: A Human PXR activation (Puracyp, Inc.) kit was used for evaluation.
DPX2 cells expressing human PXR were seeded in a 96-well plate at a concentration of 40000 cells/well and cultured at 37° C. under 5% carbon dioxide for 24 hours (medium: culture medium for DPX2 cells containing 10% fetal bovine serum, antibiotics, sodium pyruvate, D-glucose, and phenol red). After culture for 24 hours, a DMSO solution of the compound of the present invention was diluted with a medium (dosing medium for DPX2 cells containing 10% fetal bovine serum, D-glucose, antibiotics, sodium pyruvate, and L-glutamine) so that the final concentration was 10 and 50 μM, and a rifampicin DMSO solution as a positive control drug was 0.2, 1, 2, and 20 μM. The medium was removed from the 96-well plate after culture for 24 hours. 100 μL of the solution of the compound of the present invention and 100 μL of the rifampicin solution prepared were added to each well, and cultured for 48 hours. The medium was removed from the 96-well plate after culture for 48 hours. 100 μL of each reaction mixture obtained by adding 5.25 μL of CellTiter-Fluor to 10.5 mL of TubeE was filled therein. The plate was set in a plate reader (PerkinElmer, Inc.) after culture for 1 hour to measure the fluorescence intensity at an interval of 0.1 seconds per well. The plate was taken out. 100 μL of a solution obtained by adding ONE-Glo Assay Substrate to ONE-Glo Assaybuffer was added to each well. After 2 minutes from the addition of the solution, the plate was set in the plate reader to measure the […] at an interval of 2 seconds per well. The PXR activity of the product of the present invention was a value obtained by dividing the emission intensity by the fluorescence intensity.

[3] = biological target: human P2X7 receptor (Homo sapiens (Human), UniProt Q99572, R270H); assay: Evaluation of a human P2X7 receptor inhibitory activity (Yo-Pro uptake, BzATP stimulation, FLIPR TETRA); assay type: cell-based; settings: 1321N1 cells stably expressing human P2X7 receptor, Yo-Pro fluorescence
In short: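 1321N1 cells stably expressing human P2X7 (T606C/G952A SNP variant) in HBSS/HEPES pH 7.4–7.5 were loaded with Yo-Pro and stimulated with BzATP on FLIPR TETRA. Compound was added 8 min later and fluorescence followed for 20 min. Inhibition scaled between no-compound (0%) and reference compound (100%); IC50 by logistic fit, reported in bins A–D.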

Sequence of human PXR (O75469 whole entry): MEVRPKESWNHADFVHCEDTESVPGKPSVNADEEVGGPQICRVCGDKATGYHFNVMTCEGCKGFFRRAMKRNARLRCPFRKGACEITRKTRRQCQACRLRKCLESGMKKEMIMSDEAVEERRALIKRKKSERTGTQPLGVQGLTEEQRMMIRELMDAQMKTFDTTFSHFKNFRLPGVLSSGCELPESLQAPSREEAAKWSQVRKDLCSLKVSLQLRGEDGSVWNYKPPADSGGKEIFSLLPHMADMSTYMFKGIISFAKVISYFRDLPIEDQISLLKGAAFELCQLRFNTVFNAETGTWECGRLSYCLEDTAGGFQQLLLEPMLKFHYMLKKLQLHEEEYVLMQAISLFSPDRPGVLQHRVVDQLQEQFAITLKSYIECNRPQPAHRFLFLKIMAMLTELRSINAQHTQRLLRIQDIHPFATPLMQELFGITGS
Sequence of human P2X7 receptor (Q99572 whole entry R270H): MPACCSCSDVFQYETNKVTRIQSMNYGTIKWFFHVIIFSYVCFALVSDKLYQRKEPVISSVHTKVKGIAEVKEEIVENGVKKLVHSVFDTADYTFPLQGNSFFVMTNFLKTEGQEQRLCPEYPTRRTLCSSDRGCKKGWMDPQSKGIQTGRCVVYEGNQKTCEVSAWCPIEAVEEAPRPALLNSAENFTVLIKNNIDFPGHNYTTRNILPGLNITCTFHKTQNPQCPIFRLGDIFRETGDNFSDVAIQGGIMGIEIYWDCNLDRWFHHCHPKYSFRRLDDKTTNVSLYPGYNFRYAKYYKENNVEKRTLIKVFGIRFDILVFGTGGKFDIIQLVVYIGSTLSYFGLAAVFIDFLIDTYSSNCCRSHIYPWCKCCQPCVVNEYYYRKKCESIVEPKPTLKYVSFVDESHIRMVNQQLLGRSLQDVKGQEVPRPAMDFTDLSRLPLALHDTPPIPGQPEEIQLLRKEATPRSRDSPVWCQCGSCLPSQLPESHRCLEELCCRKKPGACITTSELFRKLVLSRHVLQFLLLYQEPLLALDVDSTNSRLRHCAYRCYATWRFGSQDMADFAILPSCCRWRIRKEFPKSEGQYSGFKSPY

SMILES	PXR 10 μM [2]	PXR 50 μM [2]	IC50 [3] [nM]	IC50 ([3]; class symbols) [nM]	other results
Cc1ccc(CO)cc1NC1=NC(=O)N(C)C2=NCC(c3cc(F)c(F)c(F)c3)N12 (stereo not drawn) [Compound I-0161]	1.2	2.5	19	–	inhibition in vivo at 1 mg/kg [1]: 51%
Cc1ccc(OCCO)cc1NC1=NC(=O)N(C)C2=NCC(c3cc(F)c(F)c(F)c3)N12 (stereo not drawn) [Compound I-0171]	1.2	2.5	–	–	inhibition in vivo at 1 mg/kg [1]: 52%
CCc1nc(OC)ccc1NC1=NC(=O)N(C)C2=NCC(c3cc(F)c(F)c(F)c3)N12 (stereo not drawn) [Compound I-0154]	7.9	15.8	17	–	inhibition in vivo at 1 mg/kg [1]: 44%
COCCOc1ccc(C)c(NC2=NC(=O)N(C)C3=NCC(c4cc(F)c(F)c(F)c4)N23)c1 (stereo not drawn) [Compound I-0158]	1.2	4.7	27	–	inhibition in vivo at 1 mg/kg [1]: 47%
COCc1ccc(C)c(NC2=NC(=O)N(C)C3=NCC(c4cc(F)c(F)c(F)c4)N23)c1 (stereo not drawn) [Compound I-0201]	4	13.5	26	–	inhibition in vivo at 1 mg/kg [1]: 51%
Cc1cc2c(cc1NC1=NC(=O)N(C)C3=NCC(c4cc(F)c(F)c(F)c4)N13)COC2 (stereo not drawn) [Compound I-0164]	10.6	25	28	–	inhibition in vivo at 1 mg/kg [1]: 47%
COc1cc(NC2=NC(=O)N(C)C3=NCC(c4cc(F)c(F)c(F)c4)N23)c(C)cc1F (stereo not drawn) [Compound I-0149]	–	–	21	–	inhibition in vivo at 1 mg/kg [1]: 41%
Cc1ccc(OC(F)F)cc1NC1=NC(=O)N(C)C2=NCC(c3cc(F)c(F)c(F)c3)N12 (stereo not drawn) [Compound I-0192]	7.9	15	18	–	inhibition in vivo at 1 mg/kg [1]: 50%
Cc1cc(F)c(CO)cc1NC1=NC(=O)N(C)C2=NCC(c3cc(F)c(F)c(F)c3)N12 (stereo not drawn) [Compound I-0168]	0.9	1.7	–	–	inhibition in vivo at 1 mg/kg [1]: 53%
COc1nc(C)c(NC2=NC(=O)N(C)C3=NCC(c4cc(F)c(F)c(F)c4)N23)cc1F (stereo not drawn) [Compound I-0162]	6.7	20	19	–	–
CCc1ccc(CO)cc1NC1=NC(=O)N(C)C2=NCC(c3cc(F)c(F)c(F)c3)N12 (stereo not drawn) [Compound I-0176]	1.1	2	20	–	–
Cc1cc2c(cc1Nc1nc(=O)c(F)c3n1C(c1cc(F)cc(F)c1)CC3)COC2 (stereo not drawn) [Compound I-0102]	–	–	11	–	inhibition in vivo at 3 mg/kg ([1]; 3 mg/kg): 55%
COc1cc(C)c(NC2=NC(=O)N(C)C3=NCC(c4ccc(F)c(F)c4)N23)cc1OC (stereo not drawn) [Compound I-0126]	–	–	–	10 to 100	–
CCOc1nc(C)c(Nc2nc(=O)c(F)c3n2C(c2ccc(F)cc2F)CC3)cc1F (stereo not drawn) [Compound I-0083]	–	–	–	10 to 100	–
COc1cc(Nc2nc(=O)c(OC)c3n2C(c2ccccc2)CC3)c(C)cc1Cl (stereo not drawn) [Compound I-0044]	–	–	–	10 to 100	–
Cc1ccc(Oc2ccccn2)cc1NC1=NC(=O)N(C)C2=NCC(c3cc(F)c(F)c(F)c3)N12 (stereo not drawn) [Compound I-0193]	–	–	–	10 to 100	–
COc1ccc(Nc2nc(=O)cc3n2C(c2ccccc2)CC3)c(C)c1 (stereo not drawn) [Compound I-0014]	–	–	–	< 10	–
Cc1ccc(OC(F)(F)CO)cc1NC1=NC(=O)N(C)C2=NCC(c3cc(F)c(F)c(F)c3)N12 (stereo not drawn) [Compound I-0204]	–	–	–	10 to 100	–
COc1ccc(Nc2nc(=O)c(F)c3n2C(c2ccccc2)CC3)c(C)c1 (stereo not drawn) [Compound I-0046]	–	–	–	10 to 100	–

SMILES	PXR 10 μM [2]	PXR 50 μM [2]	IC50 [3] [nM]	IC50 ([3]; class symbols) [nM]	other results
Cc1ccc(C#N)cc1NC1=NC(=O)N(C)C2=NCC(c3cc(F)c(F)c(F)c3)N12 (stereo not drawn) [Compound I-0145]	1.9	6.2	19	10 to 100	inhibition in vivo at 1 mg/kg [1]: 58%
Cc1nc2cc(C)c(/N=c3\[nH]c(=O)c(F)c4n3C(c3ccc(F)cc3)CC4)cc2s1 (stereo not drawn) [Compound I-0054]	–	–	–	< 10	–
Cc1cc(F)c(C#N)cc1NC1=NC(=O)N(C)C2=NCC(c3cc(F)c(F)c(F)c3)N12 (stereo not drawn) [Compound I-0211]	–	–	–	10 to 100	–
COc1ccc(C)c(NC2=NC(=O)N(C)C3=NCC(c4cc(F)c(F)c(F)c4)N23)c1 (stereo not drawn) [Compound I-0142]	5.8	13	–	10 to 100	–
COc1cc(C)c(Nc2nc(=O)c(F)c3n2C(c2ccc(F)cc2)CN3C)cc1OC (stereo not drawn) [Compound I-0152]	–	–	–	10 to 100	–
Cc1cc(Nc2nc(=O)cc3n2C(c2ccc(F)c(Cl)c2)CC3)c(C)cc1Cl (stereo not drawn) [Compound I-0012]	–	–	–	< 10	–
Cc1cc(C#N)ccc1NC1=NC(=O)N(C)C2=NCC(c3cc(F)c(F)c(F)c3)N12 (stereo not drawn) [Compound I-0208]	–	–	–	10 to 100	–
Cc1nc2cc(C)c(/N=c3\[nH]c(=O)cc4n3C(c3cc(F)cc(F)c3)CC4)cc2s1 (stereo not drawn) [Compound I-0053]	–	–	–	10 to 100	–
CN1C(=O)N=C(NCc2ccccc2)N2C1=NCC2c1cc(F)c(F)c(F)c1 (stereo not drawn) [Compound I-0188]	1.3	3.5	7.6	–	–
CN1C(=O)N=C(NCc2cccc(F)c2)N2C1=NCC2c1cc(F)c(F)c(F)c1 (stereo not drawn) [Compound I-0197]	–	–	–	10 to 100	–
Cc1[nH]c(=O)c(F)cc1Nc1nc(=O)cc2n1C(c1ccc(F)cc1F)CC2 (stereo not drawn) [Compound I-0088]	–	–	–	500 to 1000	–
COc1ccc(/N=c2\[nH]c(=O)c(F)c3n2C(c2ccc(F)cc2)CC3)c(C)n1 (stereo not drawn) [Compound I-0069]	–	–	10	–	–
COc1ccc(C)c(NC2=NC(=O)N(C)C3=NCC(c4cc(F)cc(F)c4)N23)c1 (stereo not drawn) [Compound I-0131]	–	–	–	10 to 100	–
COc1ccc(NC2=NC(=O)N(C)C3=NCC(c4cc(F)c(F)c(F)c4)N23)c(C)c1F (stereo not drawn) [Compound I-0147]	–	–	24	10 to 100	inhibition in vivo at 1 mg/kg [1]: 33%
COc1cnc(C)c(/N=c2\[nH]c(=O)c(F)c3n2C(c2ccc(F)cc2)CC3)c1 (stereo not drawn) [Compound I-0078]	–	–	–	10 to 100	–
COc1cc(C)c(Nc2nc(=O)cc3n2C(c2ccc(F)c(Cl)c2)CC3)cc1OC (stereo not drawn) [Compound I-0013]	–	–	–	< 10	–
Cc1c(Cl)cccc1Nc1nc(=O)cc2n1C(c1ccccc1)CCO2 (stereo not drawn) [Compound I-0006]	–	–	–	10 to 100	–
Cc1nc2cc(C)c(Nc3nc(=O)c(F)c4n3C(c3cc(F)cc(F)c3)CC4)cc2s1 (stereo not drawn) [Compound I-0101]	–	–	–	10 to 100	–
